Patent US9469615B2, “Quinoxalines and AZA-quinoxalines as CRTH2 receptor modulators” (Merck Sharp & Dohme Corp., priority 2010, dated 2016)

Each compound was assayed against T1, hCRTH2 (Homo sapiens, UniProt Q9Y5Y4) (assay: Radioligand binding assay ([3H]PGD2 competition, HEK-hCRTH2 membranes)). Conditions: [3H]PGD2 competition, Table B.
T1 construct: expressed in transfected cells; host or cells: HEK (human embryonic kidney) cells expressing hCRTH2; membrane preparation
T1 sequence (Q9Y5Y4 1-395): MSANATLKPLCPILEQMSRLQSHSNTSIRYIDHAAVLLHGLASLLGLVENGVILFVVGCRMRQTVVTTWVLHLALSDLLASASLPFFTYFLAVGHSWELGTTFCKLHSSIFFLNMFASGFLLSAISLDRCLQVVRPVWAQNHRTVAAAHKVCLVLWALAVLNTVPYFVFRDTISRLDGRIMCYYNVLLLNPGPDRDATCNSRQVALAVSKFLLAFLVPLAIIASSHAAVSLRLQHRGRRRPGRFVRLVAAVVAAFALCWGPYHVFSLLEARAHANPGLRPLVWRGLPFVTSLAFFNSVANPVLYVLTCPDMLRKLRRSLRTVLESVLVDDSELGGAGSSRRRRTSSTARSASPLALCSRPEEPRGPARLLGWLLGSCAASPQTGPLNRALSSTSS
Procedure, shortened: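 Membranes (8-20 μg protein) from HEK-hCRTH2 cells were incubated 60 min at room temperature with 3.0 nM [3H]PGD2 in 50 mM Tris-HCl pH 7.4, 1 mM EDTA, 2 mM MnCl2, 1% DMSO. Non-specific binding defined with 10 μM PGD2. Bound radioactivity counted after filtration.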

Compared with `O=C(O)CCCCc1nc2cc(C(=O)N3CCN(Cc4cccc(F)c4)CC3)ccc2nc1-c1ccc(Cl)cc1` [compound 667, 5-(3-(4-chlorophenyl)-7-(4-(3-fluorobenzyl)piperazine-1-carbonyl)quinoxalin-2-yl)pentanoic acid], `O=C(O)CCCCc1nc2cc(C(=O)N3CCN(Cc4ccncc4)CC3)ccc2nc1-c1ccc(Cl)cc1` [compound 682, 5-(3-(4-chlorophenyl)-7-(4-(pyridin-4-ylmethyl)piperazine-1-carbonyl)quinoxalin-2-yl)pentanoic acid] is higher in Ki: 2.1 to 20 nM for the first, 20.1 to 200 nM for the second. The first binds more tightly here.

`O=C(O)CCCCc1nc2cc(C(=O)N3CCn4cc(C(F)(F)F)nc4C3)ccc2nc1-c1ccc(Cl)cc1` [compound 668, 5-(3-(4-chlorophertyl)-7-(2-(trifluoromethyl)-5,6,7,8-tetrahydroimidazo[1,2-a]pyrazine-7-carbonyl)quinoxalin-2-yl)pentanoic acid] and `CCc1nnc2n1CCN(C(=O)c1ccc3nc(-c4ccc(Cl)cc4)c(CCCCC(=O)O)nc3c1)C2` [compound 673, 5-(3-(4-chlorophenyl)-7-(3-ethyl-5,6,7,8-tetrahydro-[1,2,4]triazolo[4,3-a]pyrazine-7-carbonyl)quinoxalin-2-yl)pentanoic acid] fall in the same range of Ki: 20.1 to 200 nM for the first, 20.1 to 200 nM for the second.

`O=C(O)CCCCc1nc2cc(C(=O)N3CCN(c4ccc(Cl)cn4)CC3)ccc2nc1-c1ccc(Cl)cc1` [compound 669, 5-(3-(4-chlorophenyl)-7-(4-(5-chloropyridin-2-yl)piperazine-1-carbonyl)quinoxalin-2-yl)pentanoic acid] and `O=C(O)CCCCc1nc2cc(C(=O)N3CCN(c4ncccc4Cl)CC3)ccc2nc1-c1ccc(Cl)cc1` [compound 676, 5-(3-(4-chlorophenyl)-7-(4-(3-chloropyridin-2-yl)piperazine-1-carbonyl)quinoxalin-2-yl)pentanoic acid] fall in the same range of Ki: 2.1 to 20 nM for the first, 2.1 to 20 nM for the second.

`Cc1nc(CN2CCN(C(=O)c3ccc4nc(-c5ccc(Cl)cc5)c(CCCCC(=O)O)nc4c3)CC2)cs1` [compound 670, 5-(3-(4-chlorophenyl)-7-(4-((2-methylthiazol-4-yl)methyl)piperazine-1-carbonyl)quinoxalin-2-yl)pentanoic acid] and `Cc1cc(N2CCN(C(=O)c3ccc4nc(-c5ccc(Cl)cc5)c(CCCCC(=O)O)nc4c3)CC2)sn1` [compound 684, 5-(3-(4-chlorophenyl)-7-(4-(3-methylisothiazol-5-yl)piperazine-1-carbonyl)quinoxalin-2-yl)pentanoic acid] fall in the same range of Ki: 2.1 to 20 nM for the first, 2.1 to 20 nM for the second.

First: Cn1cc(N2CCN(C(=O)c3ccc4nc(-c5ccc(Cl)cc5)c(CCCCC(=O)O)nc4c3)CC2)cn1 [compound 671, 5-(3-(4-chlorophenyl)-7-(4-(1-methyl-1H-pyrazol-4-yl)piperazine-1-carbonyl)quinoxalin-2-yl)pentanoic acid]
Second: O=C(O)CCCCc1nc2cc(C(=O)N3CCN(c4cccnc4)CC3)ccc2nc1-c1ccc(Cl)cc1 [compound 679, 5-(3-(4-chlorophenyl)-7-(4-(pyridin-3-y)piperazine-1-carbonyl)quinoxalin-2-yl)pentanoic acid]
The Ki of the first is higher: 20.1 to 200 nM for the first, 2.1 to 20 nM for the second. The second binds more tightly here.

`C[C@@H]1CN(C(=O)c2ccc3nc(-c4ccc(Cl)cc4)c(CCCCC(=O)O)nc3c2)[C@@H](C)CN1c1ccccc1` [compound 672, 5-(3-(4-chlorophenyl)-7-((2S,5R)-2,5-dimethyl-4-phenylpiperazine-1-carbonyl)quinoxalin-2-yl)pentanoic acid] and `O=C(O)CCCCc1nc2cc(C(=O)N3C[C@@H]4C[C@H]3CN4Cc3ccccc3)ccc2nc1-c1ccc(Cl)cc1` [compound 686, 5-(7-((1S,4S)-5-benzyl-2,5-diazabicyclo[2.2.1]heptane-2-carbonyl)-3-(4-chlorophenyl)quinoxalin-2-yl)pentanoic acid] fall in the same range of Ki: 20.1 to 200 nM for the first, 20.1 to 200 nM for the second.

`CN1CCN(C(=O)c2ccc3nc(-c4ccc(Cl)cc4)c(CCCCC(=O)O)nc3c2)CC1c1ccccc1` (stereo not drawn) [compound 674, 5-(3-(4-chlorophenyl)-7-(4-methyl-3-phenylpiperazine-1-carbonyl)quinoxalin-2-yl)pentanoic acid] and `O=C(O)CCCCc1nc2cc(C(=O)N3CC4CC4(c4ccccc4)C3)ccc2nc1-c1ccc(Cl)cc1` (stereo not drawn) [compound 690, 5-(3-(4-chlorophenyl)-7-(1-phenyl-3-azabicyclo[3.1.0]hexane-3-carbonyl)quinoxalin-2-yl)pentanoic acid] fall in the same range of Ki: 2.1 to 20 nM for the first, 2.1 to 20 nM for the second.

`Cc1nonc1N1CCN(C(=O)c2ccc3nc(-c4ccc(Cl)cc4)c(CCCCC(=O)O)nc3c2)CC1` [compound 675, 5-(3-(4-chlorophenyl)-7-(4-(4-methyl-1,2,5-oxadiazol-3-yl)piperazine-1-carbonyl)quinoxalin-2-yl)pentanoic acid] and `Cc1cnc(C)c(N2CCN(C(=O)c3ccc4nc(-c5ccc(Cl)cc5)c(CCCCC(=O)O)nc4c3)CC2)n1` [compound 681, 5-(3-(4-chlorophenyl)-7-(4-(3,6-dimethylpyrazin-2-yl)piperazine-1-carbonyl)quinoxalin-2-yl)pentanoic acid] fall in the same range of Ki: 2.1 to 20 nM for the first, 2.1 to 20 nM for the second.

`O=C(O)CCCCc1nc2cc(C(=O)N3C[C@@H]4C[C@H]3CN4c3cccc(F)c3)ccc2nc1-c1ccc(Cl)cc1` [compound 677, 5-(3-(4-chlorophenyl)-7-((1S,4S)-5-(3-fluorophenyl)-2,5-diazabicyclo[2.2.1]heptane-2-carbonyl)quinoxalin-2-yl)pentanoic acid] and `O=C(O)CCCCc1nc2cc(C(=O)N3C[C@@H]4C[C@H]3CN4c3ccc(F)cc3)ccc2nc1-c1ccc(Cl)cc1` [compound 680, 5-(3-(4-chlorophenyl)-7-((1S,4S)-5-(4-fluorophenyl)-2,5-diazabicyclo[2.2.1]heptane-2-carbonyl)quinoxalin-2-yl)pentanoic acid] fall in the same range of Ki: 2.1 to 20 nM for the first, 2.1 to 20 nM for the second.

Compared with `O=C(O)CCCCc1nc2cc(C(=O)N3CCN(C4CCCCC4)C(=O)C3)ccc2nc1-c1ccc(Cl)cc1` [compound 678, 5-(3-(4-chlorophenyl)-7-(4-cyclohexyl-3-oxo-piperazine-1-carbonyl)quinoxalin-2-yl)pentanoic acid], `O=C(O)CCCCc1nc2cc(C(=O)N3CCN(c4nnc(C5CC5)o4)CC3)ccc2nc1-c1ccc(Cl)cc1` [compound 685, 5-(3-(4-chlorophenyl)-7-(4-(5-cyclopropyl-1,3,4-oxadiazo1-2-yl)piperazine-1-carbonyl)quinoxalin-2-yl)pentanoic acid] is higher in Ki: 2.1 to 20 nM for the first, 20.1 to 200 nM for the second. The first binds more tightly here.

`Cc1cnccc1N1CCN(C(=O)c2ccc3nc(-c4ccc(Cl)cc4)c(CCCCC(=O)O)nc3c2)CC1` [compound 683, 5-(3-(4-chlorophenyl)-7-(4-(3-methylpyridin-4-yl)piperazine-1-carbonyl)quinoxalin-2-yl)pentanoic acid] and `CN1C(=O)c2ccccc2C12CCN(C(=O)c1ccc3nc(-c4ccc(Cl)cc4)c(CCCCC(=O)O)nc3c1)CC2` [compound 695, 5-(3-(4-chlorophenyl)-7-(2-methyl-3-oxospiro[isoindoline-1,4′-piperidin]-1′-ylcarbonyl)quinoxalin-2-yl)pentanoic acid] fall in the same range of Ki: 2.1 to 20 nM for the first, 2.1 to 20 nM for the second.

Compared with `O=C(O)CCCCc1nc2cc(C(=O)N[C@H](CO)c3ccc(F)cc3)ccc2nc1-c1ccc(Cl)cc1` [compound 687, (S)-5-(3-(4-chlorophenyl)-7-((1-(4-fluorophenyl)-2-hydroxyethyl)carbamoyl)quinoxalin-2-yl) pentanoic acid], `O=C(O)CCCCc1nc2cc(C(=O)N[C@H](CO)c3ccc(F)cc3)ccc2nc1-c1ccccc1` [compound 688, (S)-5-(7-((1-(4-fluorophenyl)-2-hydroxyethyl)carbamoyl)-3-phenylquinoxalin-2-yl)pentanoic acid] is higher in Ki: 2.1 to 20 nM for the first, 20.1 to 200 nM for the second. The first binds more tightly here.

`O=C(O)CCCCc1nc2cc(C(=O)N3CCC(O)(c4ccccc4)C3)ccc2nc1-c1ccc(Cl)cc1` (stereo not drawn) [compound 689, 5-(3-(4-chlorophenyl)-7-(3-hydroxy-3-phenylpyrrolidine-1-carbonyl)quinoxalin-2-yl)pentanoic acid] and `O=C(O)CCCCc1nc2cc(C(=O)NC3CC(=O)Nc4ccccc43)ccc2nc1-c1ccc(Cl)cc1` (stereo not drawn) [compound 691, 5-(3-(4-chlorophenyl)-7-((2-oxo-1,2,3,4-tetrahydroquinolin-4-yl)carbamoyl)quinoxalin-2-yl)pentanoic acid] fall in the same range of Ki: 2.1 to 20 nM for the first, 2.1 to 20 nM for the second.

`O=C(O)CCCCc1nc2cc(C(=O)N[C@H]3CCOc4cc(C(F)(F)F)ccc43)ccc2nc1-c1ccc(Cl)cc1` [compound 692, (S)-5-(3-(4-chlorophenyl)-7-((7-(trifluoromethyl)chroman-4-yl)carbamoyl)quinoxalin-2-yl)pentanoic acid] and `O=C(O)CCCCc1nc2cc(C(=O)NC3CCOc4c(F)cc(F)cc43)ccc2nc1-c1ccc(Cl)cc1` (stereo not drawn) [compound 694, 5-(3-(4-chlorophenyl)-7-((6,8-difluorochroman-4-yl)carbamoyl)quinoxalin-2-yl)pentanoic acid] fall in the same range of Ki: 2.1 to 20 nM for the first, 2.1 to 20 nM for the second.

`CC(C)(NC(=O)c1ccc2nc(-c3ccc(Cl)cc3)c(CCCCC(=O)O)nc2c1)c1ccc(F)cc1` [compound 693, 5-(3-(4-chlorophenyl)-7-((2-(4-fluorophenyl)propan-2-yl)carbamoyl)quinoxalin-2-yl)pentanoic acid] and `CC1(C)Oc2ccccc2C(NC(=O)c2ccc3nc(-c4ccc(Cl)cc4)c(CCCCC(=O)O)nc3c2)C1O` (stereo not drawn) [compound 696, 5-(3-(4-chlorophenyl)-7-((3-hydroxy-2,2-dimethylchroman-4-yl)carbamoyl)quinoxalin-2-yl)pentanoic acid] fall in the same range of Ki: 2.1 to 20 nM for the first, 2.1 to 20 nM for the second.
